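Test compounds were applied to cells in 96-well plates for 48 hours at 5 doses. TGI denotes the concentration required for complete inhibition of growth.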
Assays:
Assay in all cases: NCI tumour cell line growth inhibition, 48 h
ACHN renal = test system: ACHN renal
CCRF-CEM leukemia = test system: CCRF-CEM leukemia
EKVX NSCLC = test system: EKVX NSCLC
HL-60(TB) leukemia = test system: HL-60(TB) leukemia
HOP-92 NSCLC = test system: HOP-92 NSCLC
IGROV1 ovarian = test system: IGROV1 ovarian
K-562 leukemia = test system: K-562 leukemia
MDA-MB-231 breast = test system: MDA-MB-231 breast
SF-268 CNS = test system: SF-268 CNS
SNB-75 CNS = test system: SNB-75 CNS
UACC-62 melanoma = test system: UACC-62 melanoma

Compound | TGI (ACHN renal) [µM] | TGI (CCRF-CEM leukemia) [µM] | TGI (EKVX NSCLC) [µM] | TGI (HL-60(TB) leukemia) [µM] | TGI (HOP-92 NSCLC) [µM] | TGI (IGROV1 ovarian) [µM] | TGI (K-562 leukemia) [µM] | TGI (MDA-MB-231 breast) [µM] | TGI (SF-268 CNS) [µM] | TGI (SNB-75 CNS) [µM] | TGI (UACC-62 melanoma) [µM]
C[C@]12CC[C@H](O)CC1=CC[C@@H]1[C@@H]2CC[C@]2(C)c3nc(Cl)ccc3C[C@@H]12 | > 100 | > 50.4 | > 71.6 | > 100 | > 100 | > 100 | > 100 | > 100 | > 75.7 | 46.8 | > 100
Cc1[nH]c(=O)nc2nc3ccc(Cl)cc3c(NC(C)(CO)CO)c12 | > 100 | > 100 | > 100 | > 100 | > 100 | > 100 | > 100 | > 81 | > 100 | > 96.5 | > 100
NC(=O)C[C@H](NC(=O)C1(NC(=O)[C@H](Cc2ccc(CP(=O)(O)O)cc2)NC(=O)C(=O)O)CCCCC1)C(=O)NCCCc1cccc2ccccc12 | > 10 | > 10 | > 10 | > 10 | > 10 | > 10 | > 10 | > 10 | > 10 | > 10 | > 10
CCOc1cc2c(cc1O)CC[C@@H]1[C@@H]2CC[C@]2(C)C(OS(=O)OC3CC[C@@H]4[C@H]5CCc6cc(O)c(OCC)cc6[C@@H]5CC[C@@]34C)CC[C@@H]12 (some centres not stated) | > 81.7 | > 100 | > 37.7 | 0.929 | > 100 | 25.8 | > 55.6 | 29.8 | > 100 | 34.4 | 30.9
C=CCCC(On1c(-c2ccc(Cl)cc2)csc1=S)c1ccccc1 (configuration not stated) | > 100 | > 100 | > 100 | 53.6 | > 100 | > 100 | > 100 | > 100 | > 100 |  | > 100
CCCCC1(N=[N+]=[N-])C(=O)C2C=CC=C3c4ccccc4N(C1=O)C32 (configuration not stated) | > 31.6 | > 31.6 | > 31.6 | > 100 | > 10 | > 31.6 | > 31.6 | > 31.6 | > 31.6 | 23.1 | > 31.6
Cc1cc2c(cc1-c1cc3c(cc1C)C(C(C)C)=C(O)C(=O)/C3=C\Nc1c(C)n(C)n(-c3ccccc3)c1=O)/C(=C/Nc1c(C)n(C)n(-c3ccccc3)c1=O)C(=O)C(O)=C2C(C)C | > 100 | > 100 | > 100 | > 100 | > 100 | > 100 | > 100 | > 100 | > 100 | > 100 | > 100
COC(=O)c1c(O)ccc2c1c1c(n2Cc2ccccn2)C(=O)c2ccccc2C1=O | 58.1 | > 100 | > 100 | > 100 | > 100 | > 100 | > 100 | > 100 | > 100 |  | > 100
COc1cc(/C=c2/c3ccccc3n3c2cc(-c2ccccc2)[n+]3C)cc(OC)c1OC | 15 | > 28.9 | 22.4 | 7.2 | 12.3 | 23 | 15.4 | 14.8 | 22.9 | 15.2 | 10.5
Cc1oncc1NC1=CC(=O)C(=O)c2ccccc21 | 16.7 | 15 | 32.5 | 7.06 | 24 | 11.8 | 27 | 32.8 | 30.3 | 27.2 | 8.4
CCNc1cc2c3c(c1)CCCN3CCC2 | 63.1 | 6.43 | 48.4 | 35 | 44.4 | 31.5 | 28.3 | 22.4 | 33.3 | 32.7 | 41
CCCCCCCCCCCCCCCCCCOc1ccc(/C=C/C2=[N+](CCCl)CCO2)cc1 | > 100 | > 100 | > 100 | > 100 | > 100 | > 100 | > 100 | > 100 |  | > 100 | > 100
COP(=O)(OC)c1ccc(NCc2cc(O)ccc2O)cc1 | 32.2 | > 95.3 | 56.4 | > 92.2 | 45.5 | > 67.1 | > 96.8 | > 57.8 | 43.6 | > 77.7 | 43.9
O=C(CCc1ccc(O)c(O)c1)NCCc1ccc(O)c(O)c1 | > 100 | 78.3 | > 100 | > 100 | > 100 | > 100 | > 100 | 73.9 | > 100 | > 100 | > 100
NC(=O)CCC(NC(=O)c1cccc2c(=O)c3ccccc3[nH]c12)C(=O)O (configuration not stated) | > 100 |  | > 100 | > 100 | > 100 | > 100 | > 100 | > 100 | > 100 | > 100 | > 100
COc1ccc2oc(=Nc3ccc(F)cc3)c(C(N)=O)cc2c1 | > 100 | > 100 | > 100 | > 100 | 95.5 | > 100 | > 100 | 39.3 | > 100 | 29.5 | > 100
O=c1oc2c/c(=C\c3ccccc3)c(=O)c3cccc1c3-2 | > 100 |  | > 100 | 71.1 | 41.6 | 56.7 |  | 69.2 | 58.7 | > 100 | 59.9
CN(C)CCNC(=O)c1cccc2[nH]c(-c3ccncc3)nc12 | 28.4 | 7.77 | 73.7 | 4.06 | 20.7 | > 56.4 | > 100 | 9.74 | 47.4 | 26.5 | 10.8

Reference: PubChem BioAssay (NCI)
